Here are results for 25 molecules from PubChem BioAssay (NCI).

Among the test systems are MDA-N; SK-MEL-5 melanoma; SF-295 CNS; T-47D breast; M14 melanoma; HL-60(TB) leukemia; MALME-3M melanoma; IGROV1 ovarian; UACC-257 melanoma.
What all share (experiment): NCI-60 cell line screen, 48 h

Each structure is given as a SMILES string.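 Compound exposure: 48 hours, 5 concentrations, 96-well plates. Definition used: TGI = concentration required for complete inhibition of growth.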

On to `COc1ccc(N2N=NN(C(C)C)/C2=C(/Cl)c2nnnn2-c2ccc(OC)cc2)cc1`, for which the TGI is 27.4 µM in the assay with MDA-N; 28.7 µM with SK-MEL-5 melanoma; 30.4 µM in the assay with SF-295 CNS; 15.3 µM in the assay on T-47D breast; 21.9 µM with M14 melanoma; 5.15 µM in the assay with HL-60(TB) leukemia. Also, the TGI in the assay with MALME-3M melanoma was 24.7 µM; in the assay on IGROV1 ovarian, 28.7 µM; in the assay with UACC-257 melanoma it was 28.9 µM.
As to `COc1cc(/C=C/C(=N\NC(=S)NN)c2sc(NNC(C)=O)nc2C)ccc1O`, the TGI in the assay on MDA-N, in the assay on SK-MEL-5 melanoma, in the assay with SF-295 CNS, in the assay on T-47D breast, with M14 melanoma and in the assay on HL-60(TB) leukemia was above 100 µM in each case. Moreover, the TGI with MALME-3M melanoma, in the assay with IGROV1 ovarian and in the assay on UACC-257 melanoma was above 100 µM throughout.
Turning to `CC(C)=CCC[C@@H](C)C1=CC(=O)C(C)=C(O)C1=O`, the TGI was 16.6 µM in the assay on MDA-N; 16.4 µM in the assay on SK-MEL-5 melanoma; 27.3 µM in the assay on SF-295 CNS; 6.35 µM in the assay on T-47D breast; 17.4 µM in the assay with M14 melanoma; 0.878 µM with HL-60(TB) leukemia. Besides, the TGI in the assay with MALME-3M melanoma came to 23.3 µM; with IGROV1 ovarian it was 23.2 µM; in the assay on UACC-257 melanoma it was 25.5 µM.
Consider `COc1ccc(Cn2c3ccc([N+](=O)[O-])cc3c(=O)n2Cc2ccccn2)cc1`, for which the TGI is above 100 µM in the assay with MDA-N; 83.9 µM in the assay on SK-MEL-5 melanoma; above 100 µM in the assay on SF-295 CNS; 77.4 µM in the assay with T-47D breast; above 100 µM with M14 melanoma; 75.1 µM with HL-60(TB) leukemia. Moreover, the TGI in the assay with MALME-3M melanoma, in the assay on IGROV1 ovarian and with UACC-257 melanoma was above 100 µM throughout.
Consider `O=C1CC(C(COCc2ccccc2)OCc2ccccc2)CC(=O)N1` (stereo not given), for which the TGI in the assay on MDA-N, with SK-MEL-5 melanoma, with SF-295 CNS, in the assay on T-47D breast, with M14 melanoma and in the assay with HL-60(TB) leukemia was above 100 µM in each case. Also, the TGI in the assay with MALME-3M melanoma, in the assay with IGROV1 ovarian and with UACC-257 melanoma was above 100 µM each time.
In the case of `Nc1ccccc1OCCCOc1ccccc1N`, the TGI in the assay with MDA-N, in the assay on SK-MEL-5 melanoma, with SF-295 CNS, in the assay with T-47D breast, with M14 melanoma and in the assay on HL-60(TB) leukemia was above 100 µM in each case. For the same molecule, the TGI in the assay on MALME-3M melanoma, in the assay with IGROV1 ovarian and in the assay with UACC-257 melanoma was above 100 µM in each case.
For `CCN(CC)c1ccc2cc(C(N)=O)c(=Nc3ccc(F)cc3)oc2c1`, the TGI with MDA-N, with SK-MEL-5 melanoma, in the assay on SF-295 CNS, in the assay on T-47D breast, in the assay with M14 melanoma and with HL-60(TB) leukemia was above 100 µM in each case. In addition, the TGI in the assay with MALME-3M melanoma, with IGROV1 ovarian and in the assay on UACC-257 melanoma was above 100 µM each time.
Turning to `O=C1C=C(O)c2c(O)ccc(O)c2C1=O`, the TGI with MDA-N, with SK-MEL-5 melanoma, with SF-295 CNS, in the assay on T-47D breast, in the assay on M14 melanoma and with HL-60(TB) leukemia was above 100 µM throughout. Further, the TGI with MALME-3M melanoma, with IGROV1 ovarian and in the assay with UACC-257 melanoma was above 100 µM in each case.
In the case of `O=C(NNS(=O)(=O)c1ccccc1)c1csc(NC(=S)NC2CCCCC2)n1`, the TGI with MDA-N is 40.2 µM; with SK-MEL-5 melanoma it was 27.6 µM; in the assay with SF-295 CNS, above 100 µM; in the assay on T-47D breast it was 52.9 µM; with M14 melanoma, above 100 µM; in the assay with HL-60(TB) leukemia, above 100 µM. Moreover, the TGI in the assay with MALME-3M melanoma was above 100 µM; in the assay on IGROV1 ovarian it was 85.1 µM; in the assay on UACC-257 melanoma it was 53.8 µM.
As for `CC(=O)c1[nH]c(Nc2ccc(C)cc2)c(C(=S)Nc2ccccc2)c1N`, the TGI with MDA-N turned out to be 37.2 µM; in the assay on SK-MEL-5 melanoma, 31 µM; in the assay on SF-295 CNS it was 39.7 µM; with T-47D breast it was 37.2 µM; in the assay on M14 melanoma, 36.4 µM; in the assay on HL-60(TB) leukemia, 54.1 µM. For the same molecule, the results for the TGI in the assay on MALME-3M melanoma, in the assay with IGROV1 ovarian and with UACC-257 melanoma were 31.9 µM, 35.7 µM and 36.5 µM, respectively.
With `O=C1CCCCN1C(=O)c1ccc([N+](=O)[O-])cc1`, the TGI with MDA-N, in the assay on SK-MEL-5 melanoma, with SF-295 CNS, with T-47D breast, in the assay with M14 melanoma and with HL-60(TB) leukemia was above 100 µM throughout. Moreover, the TGI in the assay on MALME-3M melanoma, in the assay on IGROV1 ovarian and with UACC-257 melanoma was above 100 µM throughout.
Consider `NCCS(=O)(=O)O`, for which the TGI with MDA-N, in the assay on SK-MEL-5 melanoma, with SF-295 CNS, in the assay with T-47D breast, in the assay with M14 melanoma and in the assay with HL-60(TB) leukemia was above 100 µM each time. For the same molecule, the TGI with MALME-3M melanoma, with IGROV1 ovarian and in the assay with UACC-257 melanoma was above 100 µM in each case.
Take `COC12C=CC(CC1)C(C)(C)C2OS(C)(=O)=O` (stereo not given): the TGI in the assay on MDA-N, in the assay on SK-MEL-5 melanoma, in the assay on SF-295 CNS, in the assay with T-47D breast, in the assay on M14 melanoma and with HL-60(TB) leukemia was above 100 µM in each case. Moreover, the TGI in the assay with MALME-3M melanoma, in the assay with IGROV1 ovarian and in the assay on UACC-257 melanoma was above 100 µM throughout.
For the molecule `COc1cc([C@@H]2c3cc4c(cc3[C@@H](c3c(O)cc(O)c5c3O[C@H](c3ccc(O)c(O)c3)[C@H](OC(=O)c3cc(O)c(O)c(O)c3)C5)[C@H]3COC(=O)[C@H]23)OCO4)cc(OC)c1O`, the TGI in the assay on MDA-N was above 100 µM; with SK-MEL-5 melanoma, 78.4 µM; in the assay on SF-295 CNS, above 100 µM; with T-47D breast, above 100 µM; in the assay on M14 melanoma, 64.2 µM; in the assay on HL-60(TB) leukemia it was 56.3 µM. Besides, the TGI in the assay with MALME-3M melanoma, in the assay on IGROV1 ovarian and with UACC-257 melanoma was above 100 µM in each case.
On to `O=C1O[C@H]2C3C4CCC(C4[C@@H]2I)[C@H]13` (stereo not given in full), for which the TGI in the assay on MDA-N, in the assay with SK-MEL-5 melanoma, with SF-295 CNS, in the assay on T-47D breast, in the assay on M14 melanoma and in the assay on HL-60(TB) leukemia was above 100 µM throughout. Moreover, the TGI in the assay with MALME-3M melanoma, in the assay on IGROV1 ovarian and in the assay on UACC-257 melanoma was above 100 µM throughout.
Turning to `N#Cc1c(N2CCCC2)nsc1Nc1ccc(F)cc1`, the TGI in the assay with MDA-N, in the assay on SK-MEL-5 melanoma, with SF-295 CNS, in the assay with T-47D breast, in the assay on M14 melanoma and in the assay on HL-60(TB) leukemia was above 100 µM each time. Moreover, the TGI in the assay on MALME-3M melanoma, with IGROV1 ovarian and in the assay on UACC-257 melanoma was above 100 µM throughout.
Turning to `OC(C1CCCCCCCCCC1)C(O)C1CCCCCCCCCC1` (stereo not given), the TGI with MDA-N, in the assay on SK-MEL-5 melanoma, in the assay with SF-295 CNS, in the assay on T-47D breast, in the assay on M14 melanoma and with HL-60(TB) leukemia was above 100 µM throughout. Besides, the TGI in the assay with MALME-3M melanoma, with IGROV1 ovarian and in the assay on UACC-257 melanoma was above 100 µM throughout.
Consider `O=S(c1ccc(Cl)cc1)c1ccccc1C1=NCCN1` (stereo not given), for which the TGI in the assay on MDA-N, with SK-MEL-5 melanoma, in the assay with SF-295 CNS, in the assay with T-47D breast, in the assay with M14 melanoma and in the assay with HL-60(TB) leukemia was above 100 µM each time. Also, the TGI with MALME-3M melanoma, in the assay on IGROV1 ovarian and in the assay on UACC-257 melanoma was above 100 µM each time.
`CC(=O)OCC1OC(n2c(N)c(C#N)c(-c3cccc(Cl)c3)c(C#N)c2=S)C(OC(C)=O)C(OC(C)=O)C1OC(C)=O` (stereo not given): the TGI in the assay with MDA-N was 54.7 µM; with SK-MEL-5 melanoma it was 30.3 µM; in the assay with SF-295 CNS it was above 100 µM; with T-47D breast, 59 µM; in the assay on M14 melanoma it was 57.1 µM; with HL-60(TB) leukemia it was 52 µM. Further, the TGI in the assay with MALME-3M melanoma was above 100 µM; with IGROV1 ovarian, above 100 µM; in the assay on UACC-257 melanoma it was 65 µM.
Consider `COc1ccc(C2C(C#N)=C(S)N(C3OC(CO)C(O)C(O)C3O)C(C)=C2C(C)=O)cc1` (stereo not given), for which the TGI in the assay on MDA-N was above 100 µM; in the assay with SK-MEL-5 melanoma, above 100 µM; in the assay on SF-295 CNS it was above 100 µM; in the assay with T-47D breast, 97.1 µM; with M14 melanoma, above 100 µM; with HL-60(TB) leukemia, above 100 µM. The TGI in the assay with MALME-3M melanoma, in the assay with IGROV1 ovarian and with UACC-257 melanoma was above 100 µM in each case.
`CC(=O)N1C(Nc2cccc3nc(C)ccc23)CCN1c1ccccc1` (stereo not given): the TGI in the assay with MDA-N, in the assay on SK-MEL-5 melanoma, in the assay on SF-295 CNS, in the assay on T-47D breast, with M14 melanoma and with HL-60(TB) leukemia was above 10 µM throughout. The TGI in the assay with MALME-3M melanoma, with IGROV1 ovarian and in the assay with UACC-257 melanoma was above 10 µM each time.
Consider `CN(/N=C/c1ccc(Cl)cc1)C1=NCCCCN1`, for which the TGI was above 100 µM in the assay with MDA-N; above 100 µM in the assay with SK-MEL-5 melanoma; above 100 µM with SF-295 CNS; above 100 µM with T-47D breast; 57.4 µM in the assay with M14 melanoma; above 100 µM in the assay with HL-60(TB) leukemia. In addition, the TGI in the assay on MALME-3M melanoma, in the assay on IGROV1 ovarian and with UACC-257 melanoma was above 100 µM throughout.
Take `CC(=O)OCC1OC(SC2=NC(=O)/C(=C/c3ccccc3)S2)C(OC(C)=O)C(OC(C)=O)C1OC(C)=O` (stereo not given): the TGI in the assay on MDA-N is above 100 µM; with SK-MEL-5 melanoma, 42.8 µM; in the assay with SF-295 CNS it was above 100 µM; with T-47D breast, above 100 µM; in the assay with M14 melanoma, above 100 µM; in the assay with HL-60(TB) leukemia, 31.3 µM. Besides, the values for the TGI in the assay with MALME-3M melanoma, in the assay on IGROV1 ovarian and in the assay with UACC-257 melanoma were 70.5 µM, above 100 µM and above 100 µM, respectively.
For `C1=CN2C[n+]3ccc4ccccc4c3N=C2c2ccccc21`, the TGI came to 7.59 µM with MDA-N; 1.5 µM in the assay with SK-MEL-5 melanoma; 24 µM with SF-295 CNS; 5.29 µM in the assay with T-47D breast; 11.7 µM in the assay with M14 melanoma; 9.1 µM with HL-60(TB) leukemia. Moreover, the TGI turned out to be 3.46 µM in the assay with MALME-3M melanoma, 20.2 µM in the assay with IGROV1 ovarian and 20.7 µM in the assay on UACC-257 melanoma.
Turning to `O=c1[nH]nc(Cc2ccc(Cl)cc2)n1/N=C/c1c[nH]c2ccccc12`, the TGI in the assay on MDA-N, with SK-MEL-5 melanoma, with SF-295 CNS, with T-47D breast, in the assay with M14 melanoma and in the assay with HL-60(TB) leukemia was above 100 µM throughout. The TGI in the assay on MALME-3M melanoma, in the assay with IGROV1 ovarian and in the assay with UACC-257 melanoma was above 100 µM throughout.
